# Data taken from ChEMBL document CHEMBL5543121, “Drug Repurposing of ACT001 to Discover Novel Promising Sulfide Prodrugs with Improved Safety and Potent Activity for Neutrophil-Mediated Antifungal Immunotherapy” (J Med Chem, 2024).
# Activity calls are given as the source filed them. The rule behind the calls is not given here.
# Tests used:
# [1] = Inhibition of fungal curdlan induced PD-L1 expression in mouse neutrophils at 40 uM relative to control; type: functional, Neutrophil; conditions: Mus musculus, Neutrophil
# [2] = (§1) Cytotoxicity against mouse neutrophils assessed as cell viability at 40 uM relative to control; type: toxicity, cell-based, Neutrophil; conditions: mouse neutrophils, read-out: Activity
# Neutrophil = assay: as §1; type: toxicity, cell-based; conditions: neutrophil, 40 µM
# [3] = molecular target: Signal transducer and activator of transcription 3 (Mus musculus) (UniProt P42227); assay: Binding affinity to STAT3 in mouse bone marrow neutrophils at 20 uM by pulldown based Western blot analysis; type: cell-based; conditions: Neutrophil
# Sequence of Signal transducer and activator of transcription 3 (Mus musculus) (P42227 whole entry): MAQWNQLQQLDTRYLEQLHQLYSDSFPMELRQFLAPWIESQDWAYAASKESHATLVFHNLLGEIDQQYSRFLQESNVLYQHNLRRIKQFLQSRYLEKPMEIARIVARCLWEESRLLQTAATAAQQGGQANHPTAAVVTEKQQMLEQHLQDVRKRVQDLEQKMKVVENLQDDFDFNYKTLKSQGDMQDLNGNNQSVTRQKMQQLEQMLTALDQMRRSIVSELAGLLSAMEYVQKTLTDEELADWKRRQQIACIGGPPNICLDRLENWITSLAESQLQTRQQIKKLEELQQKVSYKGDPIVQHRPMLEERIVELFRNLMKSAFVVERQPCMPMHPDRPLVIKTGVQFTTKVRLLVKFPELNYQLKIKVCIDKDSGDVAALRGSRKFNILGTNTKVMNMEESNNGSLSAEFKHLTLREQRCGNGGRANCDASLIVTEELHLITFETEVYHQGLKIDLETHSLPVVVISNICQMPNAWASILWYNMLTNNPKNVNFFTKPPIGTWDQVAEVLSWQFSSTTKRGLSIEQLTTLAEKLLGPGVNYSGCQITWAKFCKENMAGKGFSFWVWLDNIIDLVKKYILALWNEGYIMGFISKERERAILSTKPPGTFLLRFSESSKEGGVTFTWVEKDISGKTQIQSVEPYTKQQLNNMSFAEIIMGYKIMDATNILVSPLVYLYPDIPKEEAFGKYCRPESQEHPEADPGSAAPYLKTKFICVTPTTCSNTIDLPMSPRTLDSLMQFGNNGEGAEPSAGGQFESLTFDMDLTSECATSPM
# [4] = molecular target: Signal transducer and activator of transcription 3 (Mus musculus) (UniProt P42227); assay: Binding affinity to STAT3 in mouse bone marrow neutrophils at 20 uM by silver staining based pulldown assay; type: cell-based; conditions: Neutrophil
Compound,inhibition at 40 µM [1] [%],viability at 40 µM [2] [%],Activity (Neutrophil) [%],Activity [3],Activity [4]
CC1=C2CC[C@@](C)(O)[C@@H]2[C@H]2OC(=O)[C@@H](CSc3ccc(C)cc3)[C@@H]2CC1,34.8,70.6,,,
COc1ccc(SC[C@@H]2C(=O)O[C@H]3[C@H]2CCC(C)=C2CC[C@@](C)(O)[C@@H]23)cc1,63.2,88.8,,,
CC1=C2CC[C@@](C)(O)[C@@H]2[C@H]2OC(=O)[C@@H](C[S+]([O-])c3ccc(Cl)cc3Cl)[C@@H]2CC1 (stereo in doubt; 22a),64.8,,74.28,,
CC1=C2CC[C@@](C)(O)[C@@H]2[C@H]2OC(=O)[C@@H](CSCCC(C)C)[C@@H]2CC1,25.2,101,,,
CC1=C2CC[C@@](C)(O)[C@@H]2[C@H]2OC(=O)[C@@H](CSc3ccc(Cl)c(Cl)c3)[C@@H]2CC1,71.1,86.6,,,
CC1=C2CC[C@@](C)(O)[C@@H]2[C@H]2OC(=O)[C@@H](CSc3ccc(Cl)cc3Cl)[C@@H]2CC1,52.6,20.8,,,
CC1=C2CC[C@@](C)(O)[C@@H]2[C@H]2OC(=O)[C@@H](CSc3c(Cl)cccc3Cl)[C@@H]2CC1,41.6,57.5,,,
C[C@@]1(O)CC[C@]23O[C@@]2(C)CC[C@@H]2[C@H](OC(=O)[C@H]2CS(=O)(=O)c2ccc(Cl)cc2Cl)[C@@H]13,78.8,74.9,,,
CC1=C2CC[C@@](C)(O)[C@@H]2[C@H]2OC(=O)[C@@H](CSc3ncccn3)[C@@H]2CC1,49.9,60.2,,,
CC(C)CCS(=O)(=O)C[C@@H]1C(=O)O[C@H]2[C@H]1CC[C@]1(C)O[C@@]13CC[C@@](C)(O)[C@H]23,60.9,68.7,,,
C=C1C(=O)O[C@H]2[C@H]1CCC(C)=C1CC[C@@](C)(OC(=O)CCCc3cn(CCOCCOCCOCCNC(=O)CCCC[C@H]4SC[C@H]5NC(=O)N[C@H]54)nn3)[C@@H]12,,,,Active,Active
CC1=C2CC[C@@](C)(O)[C@@H]2[C@H]2OC(=O)[C@@H](CSc3ccc(F)cc3)[C@@H]2CC1,45.6,74.6,,,
C[C@@]1(O)CC[C@]23O[C@@]2(C)CC[C@@H]2[C@H](OC(=O)[C@H]2CS(=O)(=O)c2ccc(Cl)c(Cl)c2)[C@@H]13,72.7,65.2,,,
COc1ccc(S(=O)(=O)C[C@@H]2C(=O)O[C@H]3[C@H]2CC[C@]2(C)O[C@@]24CC[C@@](C)(O)[C@H]34)cc1,77.4,54.8,,,
CC1=C2CC[C@@](C)(O)[C@@H]2[C@H]2OC(=O)[C@@H](CSC3CCCCC3)[C@@H]2CC1,15.8,101,,,
